Biological target: human PDE2A1 (Homo sapiens (Human), UniProt O00408)
Assay: PDE2 fluorescence polarization (IMAP FP) inhibition assay, human enzyme
Format: biochemical
Conditions: LabB; read-out: hPDE2 Ki (nM) LabB
Experimental: The activity of the compounds in accordance with the present invention as PDE2 inhibitors may be readily determined using a fluorescence polarization (FP) methodology (Huang, W., et al., J. Biomol Screen, 2002, 7: 215).
Selectivity for PDE2, as compared to other PDE families, was assessed using the IMAPR technology. Human PDE10A2 enzyme was prepared from cytosolic fractions of transiently transfected HEK cells. All other PDE's were GST Tag human enzyme expressed in insect cells and were obtained from BPS Bioscience (San Diego, Calif.): PDE1A (Cat#60010), human PDE2A1(Cat#60020), PDE3A (Cat#60030), PDE4A1A (Cat#60040), PDE5A1 (Cat#60050), PDE6C (Cat#60060), PDE7A (Cat#60070), PDE8A1 (Cat#60080), PDE9A2 (Cat#60090), PDE11A4 (Cat#60110).
Assays for PDE 1 through 11 were performed in parallel at room temperature in 384-well microtiter plates with an incubation volume of 20.2 μL. Solutions of test compounds were prepared in DMSO and serially diluted with DMSO to yield 30 μL of each of ten solutions differing by 3-fold in concentration, at 32 serial dilutions per plate. […] A Labcyte POD 810 (Labcyte, Sunnyvale, Calif.) was used to dispense 200 nL from each well of the titration plate to make eleven copies of the assay plate for each titration, one copy for each PDE enzyme. A solution of each enzyme (dilution from aliquots, sufficient to produce 20% substrate conversion) and a separate solution of FAM-labeled cAMP or FAM-labeled cGMP from Molecular Devices (Sunnyvale, Calif., product # R7506 or cGMP#R7508), at a final concentration of 50 nM were made in the assay buffer (10 mM Tris HCl, pH 7.2, 10 mM MgCl2, 0.05% NaN3 0.01% Tween-20, and 1 mM DTT). Note that the substrate for PDE2 is 50 nM FAM cAMP containing 1000 nM of cGMP. The enzyme and the substrate were then added to the assay plates in two consecutive additions of 10 μL and then shaken to mix. The reaction was allowed to proceed at room temperature for 60 minutes. A binding solution was then made from the kit components, comprised of 80% Solution A, 20% Solution B and binding reagent at a volume of 1/600 the total binding solution. The enzymatic reaction was stopped by addition of 60 μL of the binding solution to each well of the assay plate. The plates were sealed and shaken for 10 seconds. The plates were incubated at room temperature for one hour, then the parallel and perpendicular fluorescence was measured using a Tecan Genios Pro plate reader (Tecan, Switzerland). The apparent inhibition constants for the compounds against all 11 PDE's was determined from the parallel and perpendicular fluorescent readings as described for PDE10 FP assay using the following apparent KM values for each enzyme and substrate combination: PDE1A (FAM cGMP) 70 nM, human PDE2A1 (FAM cAMP) 10,000 nM, PDE3A (FAM cAMP) 50 nM, PDE4A1A (FAM cAMP) 1500 nM, PDE5A1 (FAM cGMP) 400 nM, PDE6C (FAM cGMP) 700 nM, PDE7A (FAM cAMP) 150 nM, PDE8A1 (FAM cAMP) 50 nM, PDE9A2 (FAM cGMP) 60 nM, […] (FAM cAMP) 150 nM, PDE11A4 (FAM cAMP) 1000 nM. The intrinsic PDE2 inhibitory activity of a compound which may be used in accordance with the present invention may be determined by these assays. […]

Chain of human PDE2A1 (O00408 other isoform, or with tags, fused parts or gaps): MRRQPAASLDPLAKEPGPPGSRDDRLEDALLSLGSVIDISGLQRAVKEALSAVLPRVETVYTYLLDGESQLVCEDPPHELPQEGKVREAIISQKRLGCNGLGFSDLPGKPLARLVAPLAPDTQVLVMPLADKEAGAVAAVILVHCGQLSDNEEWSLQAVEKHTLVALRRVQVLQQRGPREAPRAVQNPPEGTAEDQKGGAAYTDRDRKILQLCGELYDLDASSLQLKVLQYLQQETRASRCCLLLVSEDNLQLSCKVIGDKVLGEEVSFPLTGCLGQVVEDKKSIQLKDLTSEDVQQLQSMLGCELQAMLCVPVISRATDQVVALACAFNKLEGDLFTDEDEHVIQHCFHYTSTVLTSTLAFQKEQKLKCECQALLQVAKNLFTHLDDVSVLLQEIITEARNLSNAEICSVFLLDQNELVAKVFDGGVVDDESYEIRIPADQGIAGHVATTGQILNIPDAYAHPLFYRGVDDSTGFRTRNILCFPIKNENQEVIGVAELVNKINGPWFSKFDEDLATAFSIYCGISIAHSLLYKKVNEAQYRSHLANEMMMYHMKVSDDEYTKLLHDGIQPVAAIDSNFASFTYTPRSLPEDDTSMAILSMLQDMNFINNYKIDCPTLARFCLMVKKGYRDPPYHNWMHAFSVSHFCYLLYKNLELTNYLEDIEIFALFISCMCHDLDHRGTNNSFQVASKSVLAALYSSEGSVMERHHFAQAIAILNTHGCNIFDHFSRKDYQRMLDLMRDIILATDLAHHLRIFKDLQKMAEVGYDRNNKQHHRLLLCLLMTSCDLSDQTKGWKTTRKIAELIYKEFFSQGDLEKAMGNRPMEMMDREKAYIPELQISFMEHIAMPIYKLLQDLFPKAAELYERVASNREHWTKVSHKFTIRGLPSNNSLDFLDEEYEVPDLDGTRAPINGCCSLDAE

Ki [nM] | Structure (SMILES)
174 | Cc1nc(-c2cc(C(C)c3ccc(C(F)F)c(F)c3)ncn2)cc(=O)[nH]1 (single isomer, unassigned) [Example 39, (S)- or (R)-6′-(1-(4-(difluoro-methyl)-3-fluoro-phenyl)ethyl)-2-methyl-[4,4′-bipyrimidin]-6(1H)-one]
212 | Cc1nc(-c2cc(C(C)c3ccc(OC(F)(F)F)c(F)c3)ncn2)cc(=O)[nH]1 (single isomer, unassigned) [Example 41, (S)- or (R)-6′-(1-(3-fluoro-4-(trifluoro-methoxy)phenyl)ethyl)-2-methyl-[4,4′-bipyrimidin]-6(1H)-one]
65 | Cc1nc(-c2cc(C(C)c3ccc(C(C)(F)F)cc3)ncn2)cc(=O)[nH]1 (single isomer, unassigned) [Example 37, (S)- or (R)-6′-(1-(4-(1,1-difluoro-ethyl)phenyl)ethyl)-2-methyl-[4,4′-bipyrimidin]-6(1H)-one]
4.1 | Cc1nc(-c2cc(C(C)c3ccc(OC(F)(F)F)cc3)ncn2)cc(=O)[nH]1 (single isomer, unassigned) [Example 44, (R)- or (S)-2-methyl-6′-(1-(4-(trifluoro-methoxy)phenyl)ethyl)-[4,4′-bipyrimidin]-6(1H)-one]
1.8 | Cc1nc(-c2cc(C(C)c3ccc(OC(F)(F)F)c(F)c3)ncn2)cc(=O)[nH]1 (single isomer, unassigned) [Example 40, (R)- or (S)-6′-(1-(3-fluoro-4-(trifluoro-methoxy)phenyl)ethyl)-2-methyl-[4,4′-bipyrimidin]-6(1H)-one]
1720 | Cc1nc(-c2cc([C@H](C)c3ccc(C(C)(C)O)cc3)ncn2)cc(=O)[nH]1 (single isomer, unassigned) [Example 47]
232 | Cc1nc(-c2cc(C(C)c3ccc(OC(F)F)c(F)c3)ncn2)cc(=O)[nH]1 (single isomer, unassigned) [Example 35, (S)- or (R)-6′-(1-(4-(difluoro-methoxy)-3-fluorophenyl)ethyl)-2-methyl-[4,4′-bipyrimidin]-6(1H)-one]
20 | Cc1nc(-c2cc(C(C)c3ccc(C(C)(F)F)cc3)ncn2)cc(=O)[nH]1 (single isomer, unassigned) [Example 36, (R)- or (S)-6′-(1-(4-(1,1-difluoro-ethyl)phenyl)ethyl)-2-methyl-[4,4′-bipyrimidin]-6(1H)-one]
13 | Cc1nc(-c2cc(C(C)c3ccc(OC(F)F)c(F)c3)ncn2)cc(=O)[nH]1 (single isomer, unassigned) [Example 34, (R)- or (S)-6′-(1-(4-(difluoro-methoxy)-3-fluorophenyl)ethyl)-2-methyl-[4,4′-bipyrimidin]-6(1H)-one]
194 | Cc1nc(-c2cc(C(C)c3ccc(OC(F)(F)F)cc3)ncn2)cc(=O)[nH]1 (single isomer, unassigned) [Example 45, (S)- or (R)-2-methyl-6′-(1-(4-(trifluoro-methoxy)phenyl)ethyl)-[4,4′-bipyrimidin]-6(1H)-one]
16 | Cc1nc(-c2cc([C@@H](C)c3ccc(C(F)(F)F)cc3F)ncn2)cc(=O)[nH]1 (single isomer, unassigned) [Example 31]

Structure (SMILES) | Ki [nM]
Cc1nc(-c2cc(C(C)c3ccc(C(F)(F)F)cc3)ncn2)cc(=O)[nH]1 (single isomer, unassigned) [Example 32, (R)- or (S)-2-methyl-6′-(1-(4-(trifluoromethyl)phenyl)ethyl)-[4,4′-bipyrimi-din]-6(1H)-one] | 64
Cc1nc(-c2cc(C(C)c3ccc(C(F)(F)F)cc3)ncn2)cc(=O)[nH]1 (single isomer, unassigned) [Example 33] | 20

Reference: US10195201B2, “Heteroaryl-pyrimidinone compounds as PDE2 inhibitors” (Merck Sharp & Dohme Corp., priority 2015, dated 2019)
